Literature values as cited in patent US11382851B2, “Hair dye composition containing at least one organic silicon compound, a direct dye and a film forming hydrophobic polymer” (Henkel AG & Co. KGaA, priority 2018, dated 2022).

Conditions: about 25° C.

SMILES | solubility in water | solubility in water (in words)
CCN(Cc1cccc(S(=O)(=O)[O-])c1)c1ccc(C(=C2C=CC(=[N+](CC)Cc3cccc(S(=O)(=O)[O-])c3)C=C2)c2ccccc2S(=O)(=O)[O-])cc1.[Na+].[Na+] [Acid Blue 9] | more than 20 % by weight | –
O=S(=O)([O-])c1ccc(N=Nc2c(O)ccc3ccccc23)cc1.[Na+] [Acid Orange 7, sodium salt of 4-[(2-hydroxy-1-naphthyl)azo]benzene sulphonate] | more than 7 g/L | –
Nc1cc(S(=O)(=O)[O-])cc2cc(S(=O)(=O)[O-])c(N=Nc3ccccc3)c(O)c12.[Na+].[Na+] [Acid Red 33, disodium salt of 5-amino-4-hydroxy-3-(phenylazo)-naphthalene-2,7-disulphonate] | about 2.5 g/L | –
O=C([O-])c1c(Cl)c(Cl)c(Cl)c(Cl)c1-c1c2c(Br)cc(=O)c(Br)c-2oc2c(Br)c(O)cc(Br)c12.O=C([O-])c1c(Cl)c(Cl)c(Cl)c(Cl)c1-c1c2c(Br)cc(=O)c(Br)c-2oc2c(Br)c(O)cc(Br)c12.[Na+].[Na+] [Acid Red 92, disodium salt of 3,4,5,6-tetrachloro-2-(1,4,5,8-tetrabromo-6-hydroxy-3-oxoxanthen-9-yl)benzoic acid] | greater than 10 g/L | –
O=C([O-])C1=NN(c2ccc(S(=O)(=O)[O-])cc2)C(=O)C1N=Nc1ccc(S(=O)(=O)[O-])cc1.[Na+].[Na+].[Na+] (centres unmarked) [Acid Yellow 23, trisodium salt of 4,5-dihydro-5-oxo-1-(4-sulfophenyl)-4-((4-sulfophenyl)azo)-1H-pyrazole-3-carboxylic acid] | – | highly soluble in water
